In patent publication US20230159931A1, “TARGETING THE PALMOTYLATION/DEPALMOTYLATION CYCLE TO TREAT INFLAMMATORY DISEASES” (CORNELL UNIVERSITY, priority 2020, published 2023):

Key:
SMAD2 S-palmitoylation = SMAD2 S-palmitoylation in HEK293T cells treated with APT inhibitors (Alk14, in-gel fluorescence); format: cell-based, human; conditions: 10 μM APT inhibitors for 24 hours; HEK293T cells with HA-DHHC7 and Flag-SMAD2
From the text: FIGS. 7A-7G. APT2 is the depalmitylase of SMAD2 and C-terminal phosphorylation of SMAD2 is S-palmitoylation independent. (A) C-terminal phosphorylation (Ser465/Ser467) levels of Flag-SMAD2 (p-SMAD2(C2)) in HEK293T cells expressing HA-tagged mouse DHHC1-23. SMAD2 was pulled down with Flag beads and subjected to western blot analyses. (B) HEK293T cells were transfected with HA-tagged DHHC7 and Flag-SMAD2 WT and C41/81S mutant plasmid and treated with Alk14. The S-palmitoylation level of immunoprecipitated SMAD2 was visualized by in-gel fluorescence and the p-SMAD2(C2) level was detected by western blot analyses. […] The S-palmitoylation level of immunoprecipitated SMAD2 was visualized by in-gel fluorescence. […] The cells were labeled with Alk14 and the S-palmitoylation of SMAD2 was determined by in-gel fluorescence. […] The cells were labeled with Alk14 and the S-palmitoylation of SMAD2 was determined by in-gel fluorescence and the p-SMAD2(C2) level was detected by western blot analyses. […]
Cells were treated with 50 μM palmitic acid analogue Alkyne 14 (Alk14) for 5 h and the collected and lysed in 1% NP-40 lysis buffer (25 mM Tris-HCl pH 8.0, 150 mM NaCl, 10% glycerol, 1% Nonidet P-40) with protease inhibitor cocktail. […] The protein concentration was determined by Bradford assay (23200, Thermo Fisher). […]

NLRP3 inflammasome = assay: NLRP3-mediated inflammasome activation in peritoneal macrophage (secreted IL-1 beta); format: cell-based; conditions: peritoneal macrophage primed with LPS 200 ng/mL 4h; 2-BP 25 μM with ATP 5 mM or Nigericin 10 μM, 1 h
Description: (§1) FIG. 13. 2-BP affects NLRP3-mediated inflammasome activation. Peritoneal macrophage was first primed with LPS (200 ng/mL) in DMEM medium (without serum) for 4h, and then 2-BP (25 μM) and ATP (5 mM) or Nigericin (10 μM) were added to the cell culture and incubated for 1 h. ATP and nigericin are two reagents that are commonly used to activate the NLRP3 inflammasome. The activation of NLRP3 inflammasome was then monitored by measuring the level of IL-1 beta secreted to the medium.
as §1, with “Peritoneal” for “FIG. 13. 2-BP affects NLRP3-mediated inflammasome activation. Peritoneal”, “medium (FIG. 13). The data support that inhibiting DHHCs with 2-BP can decrease NLRP3 inflammasome activation.” for “medium.”

[1] = test system: Bone marrow-derived macrophages (BMDM); assay: Cytokine mRNA expression during LPS priming of BMDM (qRT-PCR); format: cell-based; conditions: 100 ng/mL LPS, 2-BP 10 μM or 25 μM, 6 hours
Description: (§2) FIGS. 12A-12D. 2-BP, a pan-DHHC inhibitor, decreases cytokines mRNA expression during the LPS priming step of inflammasome activation. Bone marrow-derived macrophages (BMDM) were treated with 100 ng/mL lipopolysaccharide (LPS), which can prime BMDM for inflammasome activation. A small molecule that inhibits all the DHHC family of palmitoyltransferases (DHHCs), 2-bromopalmitate (2-BP), was added at 10 μM or 25 μM together with LPS. The cells were cultured with LPS and 2-BP for 6 hours and then the mRNA levels of several pro-inflammatory cytokines: (A) IL-1 beta, (B) IL-6, (C) IL-12 beta, and (D) IL-18, were measured by quantitative reverse transcription PCR (qRT-PCR).
as §2, with “Bone” for “FIGS. 12A-12D. 2-BP, a pan-DHHC inhibitor, decreases cytokines mRNA expression during the LPS priming step of inflammasome activation. Bone”, “cytokines:” for “cytokines: (A)”, “beta (FIG. 12A), IL-6 (FIG. 12B),” for “beta, (B) IL-6, (C)”, “beta (FIG. 12C),” for “beta,”, “IL-18 (FIG. 12D),” for “(D) IL-18,”

SMILES | SMAD2 S-palmitoylation signal (SMAD2 S-palmitoylation) | NLRP3 inflammasome activation (level of IL-1 beta secreted to the medium) (NLRP3 inflammasome) | IL-1 beta mRNA level [1] | IL-6 mRNA level [1] | IL-12 beta mRNA level [1] | IL-18 mRNA level [1]
CCCCCCCCCC[C@@H]1C(=O)O[C@H]1CCc1ccc(OC)c(OC)c1 [palmostatin B] | significantly enhanced |  |  |  |  | 
CCCCCCCCCCCCCCC(Br)C(=O)O (stereo not drawn) [2-BP, 2-bromopalmitic acid] |  | decrease | decrease the mRNA levels of all these cytokines in a concentration dependent manner | decrease the mRNA levels of all these cytokines in a concentration dependent manner | decrease the mRNA levels of all these cytokines in a concentration dependent manner | decrease the mRNA levels of all these cytokines in a concentration dependent manner
